Laboratory results as given in patent US11312723B2, “Pyranopyrazole and pyrazolopyridine immunomodulators for treatment of autoimmune diseases” (The Rockefeller University, priority 2017, dated 2022).
pIC50: −log10 of the molar value.

What follows are compounds tested against Human FXIIa (Homo sapiens (Human), UniProt P00748) (assay: Factor XIIa (FXIIa) inhibitory activity, chromogenic substrate (Pefachrome XIIa) cleavage). Settings: 10 min pre-incubation, Pefachrome XIIa 400 μM.
Assay type: biochemical
Procedure: Factor XIIa (FXIIa) Inhibitory Activity:
In a 96-well clear bottom plate, 80 μl of assay buffer was added to each well. Assay buffer consists of 0.5× Hank's Balanced Salt Solution (Invitrogen), buffered with 25 mM HEPES pH 7.4 (Invitrogen) and 0.5× Tris-buffered saline with Tween-20 0.05% (Santa Cruz Biotechnology). Test compounds were first dissolved in DMSO (Sigma) and then 4 μl were added to test wells containing assay buffer. Serial dilutions using an automated multi-channel pipette were used to generate a concentration range of approximately 1-100 μM. Human FXIIa (Enzyme Research Labs) was diluted in assay buffer to a final concentration of 12.5 nM. 80 μl of this enzyme solution was added to the assay wells. The enzyme/compound mixtures were incubated for 10 minutes at room temperature. Chromogenic substrate (Pefachrome XIIa; Enzyme Research Labs) was added to assay wells at a final concentration of 400 μM. The assay plate was spun for 1 minute at 1500 g and then read at 37° C. in a SpectraMax M2 plate reader (λ=405 nm). Activity was quantified as the rate of change in absorbance, which corresponds to the rate of substrate cleavage. IC50 values were determined as the concentration of inhibitor that produced 50% of the rate of change of control wells without any inhibitor. For compounds with activity <1 μM, the assay was repeated with a lower concentration range, typically from 10-1000 nM.

Sequence of Human FXIIa (P00748 373-615): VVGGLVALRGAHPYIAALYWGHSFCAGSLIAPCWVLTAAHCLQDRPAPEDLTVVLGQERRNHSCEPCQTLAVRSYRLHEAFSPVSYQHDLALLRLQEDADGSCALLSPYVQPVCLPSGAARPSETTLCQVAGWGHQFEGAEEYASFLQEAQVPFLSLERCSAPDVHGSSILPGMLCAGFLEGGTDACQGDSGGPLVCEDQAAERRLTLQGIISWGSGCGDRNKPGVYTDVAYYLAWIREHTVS
Sequence of Human FXIIa (P00748 20-372 partner): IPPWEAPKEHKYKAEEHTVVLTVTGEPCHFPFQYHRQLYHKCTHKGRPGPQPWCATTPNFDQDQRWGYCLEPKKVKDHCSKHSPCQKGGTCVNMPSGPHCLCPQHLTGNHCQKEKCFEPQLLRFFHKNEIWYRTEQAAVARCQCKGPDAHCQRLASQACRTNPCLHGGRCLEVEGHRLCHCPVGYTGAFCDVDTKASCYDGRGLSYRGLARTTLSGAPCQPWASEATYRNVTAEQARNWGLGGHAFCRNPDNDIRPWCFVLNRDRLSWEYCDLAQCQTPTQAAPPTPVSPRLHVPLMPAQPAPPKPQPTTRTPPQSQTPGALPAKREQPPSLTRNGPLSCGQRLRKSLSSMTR

Compound | pIC50
CS(=O)(=O)N1CCc2c(nn(C(=O)C3CCNc4ccc(F)cc43)c2N)C1 (single isomer, unassigned) [Example 19, (R*)-(3-amino-6-(methylsulfonyl)-4,5,6,7-tetrahydropyrazolo[3,4-c]pyridin-2-yl)(6-fluoro-1,2,3,4-tetrahydroquinolin-4-yl)methanone] | 4.96
CCc1ccc2c(c1)C(C(=O)n1nc3c(c1N)CCN(S(C)(=O)=O)C3)CCN2 (single isomer, unassigned) [Example 33, (R*)-(3-amino-6-(methylsulfonyl)-4,5,6,7-tetrahydropyrazolo[3,4-c]pyridin-2-yl)(6-ethyl-1,2,3,4-tetrahydroquinolin-4-yl)methanone] | 5.00
Cc1cccc2c1NCCC2C(=O)n1nc2c(c1N)CCN(S(C)(=O)=O)C2 (single isomer, unassigned) [Example 36, (R*)-(3-amino-6-(methylsulfonyl)-4,5,6,7-tetrahydropyrazolo[3,4-c]pyridin-2-yl)(8-methyl-1,2,3,4-tetrahydroquinolin-4-yl)methanone] | 4.77
CS(=O)(=O)N1CCc2c(nn(C(=O)C3CCNc4c(Cl)cccc43)c2N)C1 (single isomer, unassigned) [Example 59, (R*)-(3-amino-6-(methylsulfonyl)-4,5,6,7-tetrahydropyrazolo[3,4-c]pyridin-2-yl)(8-chloro-1,2,3,4-tetrahydroquinolin-4-yl)methanone] | 4.46
COc1cccc2c1NCCC2C(=O)n1nc2c(c1N)CCN(S(C)(=O)=O)C2 (single isomer, unassigned) [Example 64, (R*)-(3-amino-6-(methylsulfonyl)-4,5,6,7-tetrahydropyrazolo[3,4-c]pyridin-2-yl)(8-methoxy-1,2,3,4-tetrahydroquinolin-4-yl)methanone] | 4.46
Nc1c2c(nn1C(=O)C1CCNc3c(Cl)cccc31)CNCC2 (single isomer, unassigned) [Example 73, (R*)-(3-amino-4,5,6,7-tetrahydropyrazolo[3,4-c]pyridin-2-yl)(8-chloro-1,2,3,4-tetrahydroquinolin-4-yl)methanone] | 5.15
Cc1cc(F)cc2c1NCCC2C(=O)n1nc2c(c1N)CCOC2 (single isomer, unassigned) [Example 77, (R*)-(3-amino-4,5-dihydropyrano[3,4-c]pyrazol-2(7H)-yl)(6-fluoro-8-methyl-1,2,3,4-tetrahydroquinolin-4-yl)methanone] | 4.15
Cc1cccc2c1NCCC2C(=O)n1nc2c(c1N)CCN(S(C)(=O)=O)C2C (single isomer, unassigned) [Example 78, (3-amino-7-methyl-6-(methylsulfonyl)-4,5,6,7-tetrahydropyrazolo[3,4-c]pyridin-2-yl)(8-methyl-1,2,3,4-tetrahydroquinolin-4-yl)methanone] | < 4.10
CS(=O)(=O)N1CCc2c(nn(C(=O)[C@@H]3CCNc4ccccc43)c2N)C1 (single isomer, unassigned) [Example 134, (R*)-(3-amino-6-(methylsulfonyl)-4,5,6,7-tetrahydro-pyrazolo[3,4-c]pyridin-2-yl)(1,2,3,4-tetrahydro-quinolin-4-yl)methanone] | 4.55
Nc1c2c(nn1C(=O)[C@@H]1CCNc3ccc(F)cc31)CNCC2 (single isomer, unassigned) [Example 147, (R*)-(3-amino-4,5,6,7-tetrahydro-pyrazolo[3,4-c]pyridin-2-yl)(6-fluoro-1,2,3,4-tetrahydro-quinolin-4-yl)methanone] | 5.00
CCN1CCc2c(nn(C(=O)[C@@H]3CCNc4ccc(F)cc43)c2N)C1 (single isomer, unassigned) [Example 166, (R*)-(3-amino-6-ethyl-4,5,6,7-tetrahydro-pyrazolo[3,4-c]pyridin-2-yl)(6-fluoro-1,2,3,4-tetrahydro-quinolin-4-yl)methanone] | 5.00
CCN1CCc2c(nn(C(=O)[C@@H]3CCNc4c(C)cccc43)c2N)C1 (single isomer, unassigned) [Example 174, (R*)-(3-amino-6-ethyl-4,5,6,7-tetrahydro-pyrazolo[3,4-c]pyridin-2-yl)(8-methyl-1,2,3,4-tetrahydro-quinolin-4-yl)methanone] | 5.10
Cc1cccc2c1NCC[C@H]2C(=O)n1nc2c(c1N)CCNC2 (single isomer, unassigned) [Example 177, (R*)-(3-amino-4,5,6,7-tetrahydro-pyrazolo[3,4-c]pyridin-2-yl)(8-methyl-1,2,3,4-tetrahydro-quinolin-4-yl)methanone] | 4.52
Cc1cccc2c1NCC[C@H]2C(=O)n1nc2c(c1N)CCN(S(=O)(=O)C1CCC1)C2 (single isomer, unassigned) [Example 183, (R*)-(3-amino-6-(cyclobutyl-sulfonyl)-4,5,6,7-tetrahydro-pyrazolo[3,4-c]pyridin-2-yl)(8-methyl-1,2,3,4-tetrahydro-quinolin-4-yl)methanone] | 4.46
Cc1cccc2c1NCC[C@H]2C(=O)n1nc2c(c1N)CCN(S(=O)(=O)C1COC1)C2 (single isomer, unassigned) [Example 186, (R*)-(3-amino-6-(oxetan-3-ylsulfonyl)-4,5,6,7-tetrahydro-pyrazolo[3,4-c]pyridin-2-yl)(8-methyl-1,2,3,4-tetrahydro-quinolin-4-yl)methanone] | 4.40

These reach a higher pIC50. Values come first.

pIC50 | Compound
5.30 | CCc1cc(C)c2c(c1)C(C(=O)n1nc3c(c1N)CCN(S(C)(=O)=O)C3)CCN2 (single isomer, unassigned) [Example 70, (3-amino-6-(methylsulfonyl)-4,5,6,7-tetrahydropyrazolo[3,4-c]pyridin-2-yl)((R*)-6-ethyl-8-methyl-1,2,3,4-tetrahydroquinolin-4-yl)methanone]
5.35 | CCN1CCc2c(nn(C(=O)[C@@H]3CCNc4c(C)cc(F)cc43)c2N)C1 (single isomer, unassigned) [Example 171, (R*)-(3-amino-6-ethyl-4,5,6,7-tetrahydro-pyrazolo[3,4-c]pyridin-2-yl)(6-fluoro-8-methyl-1,2,3,4-tetrahydro-quinolin-4-yl)methanone]
5.52 | Cc1cccc2c1NCCC2C(=O)n1nc2c(c1N)CCN(S(C)(=O)=O)C2C (single isomer, unassigned) [Example 79, (3-amino-7-methyl-6-(methylsulfonyl)-4,5,6,7-tetrahydropyrazolo[3,4-c]pyridin-2-yl)(8-methyl-1,2,3,4-tetrahydroquinolin-4-yl)methanone]
5.52 | CS(=O)(=O)N1CCc2c(nn(C(=O)C3CCCc4[nH]c(Cl)cc43)c2N)C1 (single isomer, unassigned) [Example 132, (R*)-(3-amino-6-(methylsulfonyl)-4,5,6,7-tetrahydro-pyrazolo[3,4-c]pyridin-2-yl)(2-chloro-4,5,6,7-tetrahydro-1H-indol-4-yl)methanone]
5.60 | Cc1cc(F)cc2c1NCCC2C(=O)n1nc2c(c1N)CCN(S(C)(=O)=O)C2 (single isomer, unassigned) [Example 54, (R*)-(3-amino-6-(methylsulfonyl)-4,5,6,7-tetrahydropyrazolo[3,4-c]pyridin-2-yl)(6-fluoro-8-methyl-1,2,3,4-tetrahydroquinolin-4-yl)methanone]
6.70 | Cc1cccc2c1NCC[C@@H]2C(=O)n1nc2c(c1N)CCN(S(=O)(=O)C1COC1)C2 (single isomer, unassigned) [Example 185, (S*)-(3-amino-6-(oxetan-3-ylsulfonyl)-4,5,6,7-tetrahydro-pyrazolo[3,4-c]pyridin-2-yl)(8-methyl-1,2,3,4-tetrahydro-quinolin-4-yl)methanone]
7.15 | Nc1c2c(nn1C(=O)C1CCNc3c(Cl)cccc31)CNCC2 (single isomer, unassigned) [Example 72, (S*)-(3-amino-4,5,6,7-tetrahydropyrazolo[3,4-c]pyridin-2-yl)(8-chloro-1,2,3,4-tetrahydroquinolin-4-yl)methanone]
7.15 | Cc1cc(F)cc2c1NCC[C@@H]2C(=O)n1nc2c(c1N)CNCC2 (single isomer, unassigned) [Example 82, (S*)-(3-amino-4,5,6,7-tetrahydropyrazolo[4,3-c]pyridin-2-yl)(6-fluoro-8-methyl-1,2,3,4-tetrahydroquinolin-4-yl)methanone]
7.40 | Cc1cccc2c1NCC[C@@H]2C(=O)n1nc2c(c1N)CCN(S(=O)(=O)N(C)C)C2 (single isomer, unassigned) [Example 180, (S*)-3-amino-N,N-dimethyl-2-(8-methyl-1,2,3,4-tetrahydro-quinoline-4-carbonyl)-4,5-dihydro-2H-pyrazolo[3,4-c]pyridine-6(7H)-sulfonamide]
7.40 | Cc1cccc2c1NCC[C@@H]2C(=O)n1nc2c(c1N)CCN(S(=O)(=O)C1CCC1)C2 (single isomer, unassigned) [Example 182, (S*)-(3-amino-6-(cyclobutyl-sulfonyl)-4,5,6,7-tetrahydro-pyrazolo[3,4-c]pyridin-2-yl)(8-methyl-1,2,3,4-tetrahydro-quinolin-4-yl)methanone]
7.70 | CCc1ccc2c(c1)C(C(=O)n1nc3c(c1N)CCN(S(C)(=O)=O)C3)CCN2 (single isomer, unassigned) [Example 32, (S*)-(3-amino-6-(methylsulfonyl)-4,5,6,7-tetrahydropyrazolo[3,4-c]pyridin-2-yl)(6-ethyl-1,2,3,4-tetrahydroquinolin-4-yl)methanone]
